Laboratory results as given in ChEMBL document CHEMBL3044831, “Docking study, in vitro anticancer screening and radiosensitizing evaluation of some new fluorine-containing quinoline and pyrimidoquinoline derivatives bearing a sulfonamide moiety” (Med Chem Res, 2011).

Tests used:
MCF7 [1] = test: Cytotoxicity against Homo sapiens (human) MCF7 cells assessed as surviving fraction at 25 uM after 48 hr by SRB assay relative to control; assay type: functional
MCF7 [2] = test: Cytotoxicity against Homo sapiens (human) MCF-7 cells assessed as surviving fraction at 10 uM after 48 hr by SRB assay relative to control; assay type: functional
MCF7 [3] = test: Cytotoxicity against Homo sapiens (human) MCF-7 cells assessed as surviving fraction at 50 uM after 48 hr by SRB assay relative to control; assay type: functional
MCF7 [4] = test: Cytotoxicity against Homo sapiens (human) MCF-7 cells assessed as surviving fraction at 100 uM after 48 hr by SRB assay relative to control; assay type: functional
MCF7 [5] = test: Cytotoxicity against Homo sapiens (human) MCF-7 cells after 48 hr by SRB assay relative to control; assay type: functional, cell-based; settings: MCF7, 48 h
MCF7 [6] = test: Radiosensitizing activity against Homo sapiens (human) gamma-irradiated MCF-7 cells assessed as surviving fraction at 10 uM after 48 hr by SRB assay (reference value: 0.927 +/- 0.02); assay type: functional
MCF7 [7] = test: Radiosensitizing activity against Homo sapiens (human) gamma-irradiated MCF-7 cells assessed as surviving fraction at 100 uM after 48 hr by SRB assay (reference value: 0.927 +/- 0.02); assay type: functional
MCF7 [8] = test: Radiosensitizing activity against Homo sapiens (human) gamma-irradiated MCF-7 cells assessed as surviving fraction at 25 uM after 48 hr by SRB assay (reference value: 0.927 +/- 0.02); assay type: functional
MCF7 [9] = test: Radiosensitizing activity against Homo sapiens (human) gamma-irradiated MCF-7 cells assessed as surviving fraction at 50 uM after 48 hr by SRB assay (reference value: 0.927 +/- 0.02); assay type: functional
MCF7 [10] = test: Potentiation of gamma-irradiation-induced cytotoxicity against Homo sapiens (human) MCF-7 cells after 48 hr by SRB assay; assay type: functional, cell-based; settings: MCF7, light or radiation study

| Structure (SMILES) | fold change (FC) (MCF7 [1]) | fold change (FC) (MCF7 [2]) | fold change (FC) (MCF7 [3]) | fold change (surviving fraction) (MCF7 [4]) | IC50 (MCF7 [5]) [µM] | fold change (FC) (MCF7 [6]) | fold change (FC) (MCF7 [7]) | fold change (FC) (MCF7 [8]) | fold change (FC) (MCF7 [9]) | IC50 (MCF7 [10]) [µM] |
| --- | --- | --- | --- | --- | --- | --- | --- | --- | --- | --- |
| CC1(C)CC(=O)C2=C(C1)N(c1ccc(S(N)(=O)=O)cc1)c1ncnc(N=C=S)c1C2c1ccc(F)cc1 (stereo not given) | 0.755 | 0.922 | 0.487 | 0.534 | 85.6 | – | – | – | – | – |
| CC1(C)CC(=O)C2=C(C1)N(c1ccc(S(N)(=O)=O)cc1)C(N)=C(C#N)C2c1ccc(F)cc1 (stereo not given) | 0.562 | 0.855 | 0.427 | 0.482 | 71.8 | – | – | – | – | – |
| CC1(C)CC(=O)C2=C(C1)N(c1ccc(S(N)(=O)=O)cc1)c1nc[nH]c(=O)c1C2c1ccc(F)cc1 (stereo not given) | 0.757 | 0.934 | 0.499 | 0.447 | 77.1 | – | – | – | – | – |
| CC(=O)NC1=C(C#N)C(c2ccc(F)cc2)C2=C(CC(C)(C)CC2=O)N1c1ccc(S(N)(=O)=O)cc1 (stereo not given) | 0.763 | 0.882 | 0.598 | 0.483 | 85.9 | – | – | – | – | – |
| CC(=O)N(C(C)=O)C1=C(C#N)C(c2ccc(F)cc2)C2=C(CC(C)(C)CC2=O)N1c1ccc(S(N)(=O)=O)cc1 (stereo not given) | 0.733 | 0.987 | 0.455 | 0.498 | 79.7 | – | – | – | – | – |
| Cc1nc2c(c(=O)[nH]1)C(c1ccc(F)cc1)C1=C(CC(C)(C)CC1=O)N2c1ccc(S(N)(=O)=O)cc1 (stereo not given) | 0.654 | 0.768 | 0.494 | 0.425 | 69.8 | – | – | – | – | – |
| CC1(C)CC(=O)C2=C(C1)N(c1ccc(S(N)(=O)=O)cc1)c1ncnc(N)c1C2c1ccc(F)cc1 (stereo not given) | 0.448 | 0.795 | 0.311 | 0.381 | 52.6 | 0.51 | 0.222 | 0.347 | 0.163 | 28.5 |
| CCO/C=N/C1=C(C#N)C(c2ccc(F)cc2)C2=C(CC(C)(C)CC2=O)N1c1ccc(S(N)(=O)=O)cc1 (stereo not given) | 0.62 | 0.904 | 0.477 | 0.401 | 67.3 | 0.677 | 0.156 | 0.428 | 0.199 | 36 |
| CC1(C)CC(=O)C2=C(C1)N(c1ccc(S(N)(=O)=O)cc1)C(NC(=O)CCl)=C(C#N)C2c1ccc(F)cc1 (stereo not given) | 0.7 | 0.885 | 0.45 | 0.43 | 70.8 | – | – | – | – | – |
| CC1(C)CC(=O)C2=C(C1)N(c1ccc(S(N)(=O)=O)cc1)c1nc(CCl)[nH]c(=O)c1C2c1ccc(F)cc1 (stereo not given) | 0.77 | 0.984 | 0.784 | 0.768 | > 100 | – | – | – | – | – |
| CC1(C)CC(=O)C2=C(C1)N(c1ccc(S(N)(=O)=O)cc1)c1nc(CC#N)[nH]c(=O)c1C2c1ccc(F)cc1 (stereo not given) | 0.864 | 0.976 | 0.662 | 0.6 | > 100 | – | – | – | – | – |
| CCNC(=S)NC1=C(C#N)C(c2ccc(F)cc2)C2=C(CC(C)(C)CC2=O)N1c1ccc(S(N)(=O)=O)cc1 (stereo not given) | 0.852 | 0.924 | 0.642 | 0.609 | > 100 | – | – | – | – | – |
| CC1(C)CC(=O)C2=C(C1)N(c1ccc(S(N)(=O)=O)cc1)C(N1C(=O)CCC1=O)=C(C#N)C2c1ccc(F)cc1 (stereo not given) | 0.885 | 0.933 | 0.678 | 0.488 | 94.1 | – | – | – | – | – |
| CC1(C)CC(=O)C2=C(C1)N(c1ccc(S(N)(=O)=O)cc1)C(N)=C(C(N)=O)C2c1ccc(F)cc1 (stereo not given) | 0.711 | 0.906 | 0.409 | 0.493 | 75.2 | – | – | – | – | – |
| CC1(C)CC(=O)C2=C(C1)N(c1ccc(S(N)(=O)=O)cc1)C(N)=C(C1=NCCN1)C2c1ccc(F)cc1 (stereo not given) | 0.679 | 0.873 | 0.423 | 0.581 | 87 | – | – | – | – | – |
| CC(=O)CC(=O)NC1=C(C#N)C(c2ccc(F)cc2)C2=C(CC(C)(C)CC2=O)N1c1ccc(S(N)(=O)=O)cc1 (stereo not given) | 0.905 | 0.919 | 0.76 | 0.663 | > 100 | – | – | – | – | – |
| CC1(C)CC(=O)C2=C(C1)N(c1ccc(S(N)(=O)=O)cc1)c1nc[nH]c(=S)c1C2c1ccc(F)cc1 (stereo not given) | 0.901 | 0.99 | 0.686 | 0.608 | > 100 | – | – | – | – | – |
| CC1(C)CC(=O)C2=C(C1)N(c1ccc(S(N)(=O)=O)cc1)c1ncnc(Cl)c1C2c1ccc(F)cc1 (stereo not given) | 0.785 | 0.909 | 0.635 | 0.457 | 85.6 | – | – | – | – | – |
| CCOC(=O)Cn1cnc2c(c1=O)C(c1ccc(F)cc1)C1=C(CC(C)(C)CC1=O)N2c1ccc(S(N)(=O)=O)cc1 (stereo not given) | 0.898 | 0.969 | 0.686 | 0.572 | > 100 | – | – | – | – | – |
| CC1(C)CC(=O)C2=C(C1)N(c1ccc(S(N)(=O)=O)cc1)c1ncnc(NN)c1C2c1ccc(F)cc1 (stereo not given) | 0.652 | 0.959 | 0.478 | 0.518 | 81.2 | – | – | – | – | – |
